Data taken from US9861679B2, “Method of treating cancer” (priority 2014, dated 2018).

What was measured:
[1] = test system: human AML patient samples; test: In vitro response of human AML patient samples to Birinapant; type: cell-based; conditions: single agent
[2] = test system: advanced solid tumours and lymphoma; conditions: intravenous administration, Phase I, patients; cited from earlier work
[3] = test system: MLL-ENL-luciferase leukemic cells; test: Anti-tumour efficacy in mice bearing MLL-ENL-luciferase leukemia; type: in vivo, mouse; conditions: mice bearing MLLENL-Luc, after one week of treatment; birinapant 5 mg/kg, LY2228820 10 mg/kg i.p. twice a week; FIG. 8A
Procedure: FIG. 8: Combination of birinapant with p38 inhibitor decreases AML tumor burden. Mice bearing MLLENL-luciferase (A and B) or MLL-AF9 (C) leukemic cells received i.p injections of birinapant (5 mg/kg), LY2228820 (10 mg/kg) or the combined drugs twice a week for 4 weeks. A. Representative data of in vivo imaging of leukaemia progression in mice bearing MLL-ENL-luciferase. B. Kaplan-Meier survival curve of mice bearing MLL-ENL-luciferase and treated or not with birinapant, LY222820 or combined therapy. C. Kaplan-Meier survival curve of mice bearing MLL-AF9 and treated or not with birinapant, LY222820 or combined therapy.
To assess the anti-tumour efficacy of SMAC mimetic plus p38 inhibitor C57BL6 Albinos mice were injected by intra-venous route with 5·10^5 MLLENLluc. Luciferase activity was measured at D4 and D8 after leukemic cells injection to ensure engraftment. Treatment started at D8. Mice were treated twice a week for 4 weeks with either vehicle (6% Captisol), 5 mg/kg of Birinapant, or 10 mg/kg of LY222820 or combination. Mice were monitored for leukemia progression once a week using the in vivo bioluminescent imaging. […]
To assess the therapeutic efficacy of the combination multiple primary MLL-ENL and MLL-AF9 leukemias were transplanted and the secondary recipient mice were treated with the different drugs. […] The engraftment and trafficking were evaluated by in vivo bioluminescent imaging. […]

C57BL/6 mice = test: Tolerability of SMAC mimetic plus p38 inhibitor in non tumour-bearing mice; type: in vivo; conditions: LY2228820 15 mg/kg combined with GT13072 5 mg/kg; FIG. 7C
Procedure: FIG. 7: Mice tolerate administration of birinapant plus p38 inhibitor. A. Mononuclear cells isolated from healthy donor by Ficoll sedimentation were treated for 48 h with indicated drugs. CD34^+ cell death was measured by staining with PI and flow cytometry. For each donor sample, graphs show mean of at least n=2 technical replicates across n=2-5 independent experiments. B and C. C57BL/6 mice were intra-peritoneally injected with vehicle (captisol 6%) or birinapant (B) or GT13072 (C) or LY2228820 or combination of LY2228820 and SM at indicated concentration. Mice received 8 injections twice a week over 4 weeks. Mice were euthanised 2 weeks after the treatment stopped. Graphs show organs, body weights and blood cell populations with 6 mice/group (B), 4 mice/group (C). Error bars are SEM.
To assess the safety of SMAC mimetic plus p38 inhibitor C57BL6 mice were injected by intra-peritoneal route twice a week for 4 weeks with either vehicle (6% Captisol) or 15 mg/kg of LY222820 or 5 mg/kg birinapant±15 mg/kg LY2228820, or 10 mg/kg birinapant±15 mg/kg LY2228820. Another cohort received either vehicle or 5 mg/kg of GT13072, or 15 mg/kg of LY222820 or combination.
200 μL of blood was collected from the retro-orbital plexus into tubes containing potassium ethylenediaminetetraacetic acid (Sarstedt) and analyzed in an Advia 2120 automated hematologic analyzer (Bayer).

[4] = test system: Bone Marrow Derived Macrophages (BMDM); test: TNFα production by ELISA in BMDM treated with SMAC mimetic ± p38 inhibitors (kinase inhibitors screen); type: cell-based, mouse; conditions: 500 nM CompA, GT13072 or birinapant ± 1 μM LY2228820, FIG. 1B
Procedure: FIG. 1: p38 inhibitors increase TNFα production and cell death induced by SMAC mimetics. A. Bone Marrow Derived Macrophages (BMDM) were pretreated ±1 μM of the indicated p38 inhibitors for 30 min then treated with 500 nM of SMAC mimetic Compound A (CompA) for 24 h. TNFα production was measured by ELISA of supernatants. B. BMDM were pretreated 500 nM of SMAC mimetic Compound A, GT13072 or birinapant ±1 μM of LY2228820. TNFα production was measured by ELISA of supernatants. N=3 biological repeats and error bars are SEM. C. BMDM were pretreated±the indicated dose of MK2 inhibitor PF-3644022 and the p38 inhibitor LY2228820, VX-702, TAK-715 or VX-745 for 30 min then treated with 500 nM of SMAC mimetic Compound A. Cell viability was measured after 24 h of treatment using CellTiter-Glo® (CTG) reagent. N=3 biological repeats and error bars are SEM. BMDMs from C56/B16, p38α^LysMCre or Mk2^−/− were cultured for 6 days in DMEM+10% FBS (v/v)+20% L929 mouse fibroblasts (a source of macrophage colony stimulating factor), plated and assayed the following day. BMDMs cells were seeded and assayed in the presence of L929 conditioned medium. AML cells were cultured in IMDM+10% FBS (v/v)+2.5 ng/ml of IL-3. […] After treatment with SMAC mimetic with or without kinases inhibitors cell viability was measured by staining with propidium iodide (2 μg/mL) or by using CellTiter-Glo® (Promega). […]

[5] = test system: Bone Marrow Derived Macrophages (BMDM); test: BMDM cell viability (CellTiter-Glo) after SMAC mimetic Compound A ± p38 or MK2 inhibitor; type: cell-based, mouse; conditions: inhibitor 30 min then 500 nM Compound A, 24 h, FIG. 1C
Procedure: FIG. 1: p38 inhibitors increase TNFα production and cell death induced by SMAC mimetics. A. Bone Marrow Derived Macrophages (BMDM) were pretreated ±1 μM of the indicated p38 inhibitors for 30 min then treated with 500 nM of SMAC mimetic Compound A (CompA) for 24 h. TNFα production was measured by ELISA of supernatants. B. BMDM were pretreated 500 nM of SMAC mimetic Compound A, GT13072 or birinapant ±1 μM of LY2228820. TNFα production was measured by ELISA of supernatants. N=3 biological repeats and error bars are SEM. C. BMDM were pretreated±the indicated dose of MK2 inhibitor PF-3644022 and the p38 inhibitor LY2228820, VX-702, TAK-715 or VX-745 for 30 min then treated with 500 nM of SMAC mimetic Compound A. Cell viability was measured after 24 h of treatment using CellTiter-Glo® (CTG) reagent. N=3 biological repeats and error bars are SEM.
BMDMs from C56/B16, p38α^LysMCre or Mk2^−/− were cultured for 6 days in DMEM+10% FBS (v/v)+20% L929 mouse fibroblasts (a source of macrophage colony stimulating factor), plated and assayed the following day. BMDMs cells were seeded and assayed in the presence of L929 conditioned medium. AML cells were cultured in IMDM+10% FBS (v/v)+2.5 ng/ml of IL-3. NCI-H929 cells were cultured in RPMI+10% FBS (v/v). Cell suspension from breast ER+ patient derived tumours was cultured in mammosphere media. After treatment with SMAC mimetic with or without kinases inhibitors cell viability was measured by staining with propidium iodide (2 μg/mL) or by using CellTiter-Glo® (Promega).

[6] = test system: low- and intermediate-1-risk Myelodysplastic syndromes; conditions: cited from earlier work
[7] = oral administration, Phase I/II, patients

In the case of `CC[C@H](NC(=O)[C@H](C)NC)C(=O)N1C[C@@H](O)C[C@H]1Cc1c(-c2[nH]c3cc(F)ccc3c2C[C@@H]2C[C@H](O)CN2C(=O)[C@H](CC)NC(=O)[C@H](C)NC)[nH]c2cc(F)ccc12` [Birinapant], the “response to Birinapant treatment in vitro” value [1] is listed as “some human AML patient samples did not respond”, the anti-tumour activity [2] is listed as “evidence of anti-tumour activity” and the tolerability [2] is listed as “well tolerated with no dose-limiting toxicities”. For the same compound, the “response to treatment (bioluminescent imaging)” value [3] was “did not”.
With `CC(C)(C)Cn1c(N)nc2ccc(-c3[nH]c(C(C)(C)C)nc3-c3ccc(F)cc3)nc21` [LY2228820] the “effect on splenomegaly induced by GT13072” value (C57BL/6 mice) was “did not even exacerbate”, the “TNF production of three different smac-mimetics” value [4] was “increased TNF production” and the “cell death induced by SMAC mimetics” value [5] was “dramatically increased”.
For `Cc1ccc(-c2ccc3c(ccc4sc5c(c43)NC[C@@H](C)NC5=O)n2)cn1` [PF-3644022], the “cell death induced by SMAC mimetics” value [5] was “dramatically increased”.
In the case of `CCc1nc(-c2cccc(C)c2)c(-c2ccnc(NC(=O)c3ccccc3)c2)s1` [TAK-715], the “cell death induced by SMAC mimetics” value [5] is reported as “dramatically increased”.
In the case of `C[C@@H]1CN(Cc2ccc(F)cc2)[C@@H](C)CN1C(=O)c1cc2c(C(=O)C(=O)N(C)C)cn(C)c2cc1Cl` [Talmapimod], the complete remission [6, 7] is given as “only one patient achieved a complete remission”, the tolerability [6, 7] is given as “well tolerated” and the “duration of complete remission” value ([6]; the one patient with complete remission) is given as “more than 2 years”.
In the case of `NC(=O)c1ccc(N(C(N)=O)c2c(F)cccc2F)nc1-c1ccc(F)cc1F` [VX-702], the “cell death induced by SMAC mimetics” value [5] is reported as “dramatically increased”.
For `O=c1ncn2nc(Sc3ccc(F)cc3F)ccc2c1-c1c(Cl)cccc1Cl` [VX-745], the “cell death induced by SMAC mimetics” value [5] was “dramatically increased”.
